Where two headings read alike, the source gives them in different places. Starred links: 1 amine or outer side, 2 acyl side, 3 side chain; linkers in the order of their positions; H or OH if unused. Non-standard residues stand in square brackets, D forms with d. Residues, ends and D or L forms follow the SMILES beside them. No end group written: not given here. ξ: configuration not given here. *: point of attachment. Bip = N[C@@H](Cc1ccc(-c2ccccc2)cc1)C(=O)O; 2Nal = N[C@@H](Cc1ccc2ccccc2c1)C(=O)O; NH(3-hydroxypropyl) = OCCCN*; Suc = O=C(CCC(=O)[*:2])[*:1]; ξN = NC(=O)CC(N)C(=O)O; Bn = c1ccc(C*)cc1
Key:
[1] = target: T1, laminin/nidogen association (Homo sapiens, UniProt P14543); test: Three-day equilibrium assay, inhibition of laminin/nidogen association; format: binding; details: Table 2, 3-day equilibrium assay variant
T1 sequence (P14543 29-1247): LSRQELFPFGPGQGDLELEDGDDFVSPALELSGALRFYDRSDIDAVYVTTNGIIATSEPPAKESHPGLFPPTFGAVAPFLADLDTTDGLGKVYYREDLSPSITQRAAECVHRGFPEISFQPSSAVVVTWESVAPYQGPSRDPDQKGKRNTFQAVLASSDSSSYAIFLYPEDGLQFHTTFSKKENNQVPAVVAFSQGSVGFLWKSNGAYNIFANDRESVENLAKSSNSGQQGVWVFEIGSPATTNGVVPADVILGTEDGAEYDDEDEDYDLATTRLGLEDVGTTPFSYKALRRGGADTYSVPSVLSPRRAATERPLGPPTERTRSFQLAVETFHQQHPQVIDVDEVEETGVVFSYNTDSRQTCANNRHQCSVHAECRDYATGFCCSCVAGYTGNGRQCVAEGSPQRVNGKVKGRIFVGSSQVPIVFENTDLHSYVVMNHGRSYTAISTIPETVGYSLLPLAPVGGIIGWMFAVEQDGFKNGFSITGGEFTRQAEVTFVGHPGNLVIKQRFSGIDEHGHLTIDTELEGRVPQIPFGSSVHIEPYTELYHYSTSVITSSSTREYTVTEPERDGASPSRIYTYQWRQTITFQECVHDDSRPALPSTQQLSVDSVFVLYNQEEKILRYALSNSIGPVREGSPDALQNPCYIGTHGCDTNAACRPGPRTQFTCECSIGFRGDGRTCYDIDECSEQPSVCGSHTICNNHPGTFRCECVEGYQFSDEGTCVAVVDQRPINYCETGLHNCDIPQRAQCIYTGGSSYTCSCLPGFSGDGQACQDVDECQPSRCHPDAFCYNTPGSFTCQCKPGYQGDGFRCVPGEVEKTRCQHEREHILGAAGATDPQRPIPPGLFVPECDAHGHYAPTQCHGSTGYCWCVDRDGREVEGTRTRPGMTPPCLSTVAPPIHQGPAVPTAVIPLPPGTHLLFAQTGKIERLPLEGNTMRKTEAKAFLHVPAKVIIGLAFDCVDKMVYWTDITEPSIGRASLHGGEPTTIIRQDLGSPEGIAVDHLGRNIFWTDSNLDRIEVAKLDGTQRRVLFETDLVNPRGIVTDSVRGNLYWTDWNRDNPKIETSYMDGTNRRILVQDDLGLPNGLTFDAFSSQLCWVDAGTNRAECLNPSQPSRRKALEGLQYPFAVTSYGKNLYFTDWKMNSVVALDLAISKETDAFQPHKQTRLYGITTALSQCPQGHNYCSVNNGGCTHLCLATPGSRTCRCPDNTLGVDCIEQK
Description: 3.1.2. Three-day equilibrium assay Selected inhibitors were investigated for inhibitory activity in this assay variant. The assay is described in U.S. Pat. No. 5,493,008. The following table compares IC50 values of selected substances with the results of the HTS screening assay. It is clear that the 3-day assay gives slightly lower measured values and, as expected, is more sensitive than the screening assay. However, it is also clear from the comparison that inhibitory structures can be identified reliably with the screening assay developed by us.

[2] = target: T2, laminin/nidogen interaction (laminin P1, recombinantly produced human nidogen) (Homo sapiens, UniProt P14543); test: HTS screening assay (time-resolved fluorescence), inhibition of laminin/nidogen binding
T2 construct: made in house; host or cells: HEK-293
T2 sequence (P14543 29-1247): T1 sequence (P14543 29-1247)
Protocol: 5) The compound stocks were preincubated with nidogen (10 μl compound stock to 90 μl nidogen solution) and the assay was performed as described in the attached protocol, yielding a final screening concentration of 2.7 μM per compound. The isolation of laminin P1 from human placenta, human nidogen from transfected HEK-293 cells and mouse laminin γ1III 3-5 from HEK-293 cells is described in WO 98/31709. 3.1.1. HTS screening assay (highly sensitive assay variant): Time-Resolved Fluorescence Assay Coating of test tubes Microtiter plates (for example FluoroNunc®) were coated with 75 μl of a 0.1 μg/ml solution of laminin P1 (in 0.159 g of Na2CO3, 0.293 g of NaHCO3, 0.02 g of NaN3/liter, pH 9.2) at room temperature for 1 hour. The solution was then tipped off, and free binding sites were blocked by incubation with 0.5% BSA (in 7.9 g of NaCl, 1.2 g of Na2HPO4, 0.31 g of KCl, 0.23 g of NaH2PO4, 0.04% Tween 20/liter, pH 7.2) at room temperature for 0.5 hour. Completion of the blocking reaction was followed by decantation of the solution and washing once with 250 μl of washing buffer (PBS/0.04% Tween). Sequential inhibition In parallel with the coating, a preincubation of 85-100 μl of a 0.25 nM nidogen solution (recombinantly produced human nidogen) with inhibitor or standard was carried out in a separate reaction vessel (1 hour at room temperature in 7.9 g of NaCl, 1.2 g of Na2HPO4, 0.31 g of KCl, 0.23 g of NaH2PO4, 0.04% Tween 20/liter, 0.5% BSA, pH 7.2). 75 μl of the preincubation (nidogen+inhibitor or standard) were transferred into the coated wells of the microtiter plate and incubated at room temperature for 1 hour. This was followed by washing twice with PBS/0.04% Tween. Detection of the bound nidogen took place by incubation (at room temperature) for 1 hour with 75 μl of a specific antibody preparation obtained from yolks of eggs from a chicken immunized with human nidogen. The IgY fraction was used in a dilution of 1:500 in PBS/0.04% Tween. The complex of nidogen and specifically bound antibodies was, after washing twice with PBS/0.04% Tween, detected by adding anti-chicken IgY-biotin (75 μl of a 1:2500 dilution; Promega, Madison, Wis. 53711, 608-274-4330). An incubation time of 1 hour and washing twice with PBS/0.04% Tween were followed for this purpose by incubation with streptavidin-europium (Wallac; 1 hour at room temperature) and washing twice with PBS/0.04% Tween. It was finally possible, after adding 100 μl of enhancement solution (Wallac) and shaking for 5 minutes, to measure a fluorescence signal in a Victor multilabel counter using the europium protocol. The relation between the amount, of bound nidogen in the solutions with inhibitor and that of nidogen without added inhibitor was found.

[3] = Table 2, HTS assay variant, read-out: IC50, HTS assay
[4] = results table 1.3, synthesized compounds 1 to 43, read-out: IC50

IC50 [1] [nM] | IC50 [2, 3] [nM] | IC50 [2, 4] [nM] | Molecule
90 | 360 | 390 | CC(C)[C@H](NC(=O)[C@H](CO)NC(=O)[C@H](CC(N)=O)NC(=O)[C@H](Cc1ccc2ccccc2c1)NC(=O)CCC(=O)O)C(=O)NCC(=O)NCCCO [Compound 24, Succinyl-L-3-(2-naphthyl)alanyl-L-asparaginyl-L-seryl-L-valyl-glycine-3-hydroxypropylamide] (Suc-[2Nal]NSVG-{NH(3-hydroxypropyl)})
– | – | 720 | CC(C)[C@H](NC(=O)CNC(=O)[C@H](CC(N)=O)NC(=O)[C@H](Cc1ccc2ccccc2c1)NC(=O)CCC(=O)O)C(N)=O [Compound 33, Succinyl-L-3-(2-naphthyl)alanyl-L-asparaginyl-glycinyl-L-valine-amide] (Suc-[2Nal]NGV-NH2)
– | – | 5020 | CC(C)[C@H](NC(=O)[C@H](C)NC(=O)[C@H](CC(N)=O)NC(=O)[C@H](Cc1ccc(OCc2ccccc2)cc1)NC(=O)CCC(=O)O)C(N)=O [Compound 35, Succinyl-L-O-benzyl-tyrosyl-L-asparaginyl-L-alanyl-L-valine-amide] (Suc-Y(Bn)NAV-NH2)
– | – | 2830 | CC(C)[C@H](NC(=O)[C@H](C)NC(=O)[C@H](CC(N)=O)NC(=O)[C@H](Cc1ccc(-c2ccccc2)cc1)NC(=O)CCC(=O)O)C(N)=O [Compound 36, Succinyl-L-3-(4-biphenyl)alanyl-L-asparaginyl-L-alanyl-L-valine-amide] (Suc-[Bip]NAV-NH2)
– | – | 260 | CC(C)[C@@H](CO)NC(=O)[C@H](C)NC(=O)[C@H](CC(N)=O)NC(=O)[C@H](Cc1ccc2ccccc2c1)NC(=O)CCC(=O)O [Compound 38, Succinyl-L-3-(2-Naphthyl)alanyl-L-asparaginyl-L-alaninyl-L-valinol]
– | – | 8170 | C[C@H](NC(=O)[C@H](CC(N)=O)NC(=O)[C@H](Cc1ccc2ccccc2c1)NC(=O)CCC(=O)O)C(=O)N1CCCC(C)(C)C1 [Compound 41, Succinyl-L-3-(2-Naphthyl)alanyl-L-asparaginyl-L-alanine-3,3-dimethylpiperidinylamide]
1200 | 3900 | – | CC[C@H](C)[C@H](NC(=O)C(N)CC(N)=O)C(=O)N[C@@H](CC(=O)O)C(=O)N1CCC[C@H]1C(=O)N[C@@H](CC(N)=O)C(=O)N[C@@H](C)C(=O)N[C@H](C(=O)O)C(C)C (stereo partly drawn) [NIDPNAV, Asn-lie-Asp-Pro-Asn-Ala-Val, reference compound] (H-[ξN]IDPNAV-OH)

Second part, the molecule before the results:

Molecule | IC50 [1] [nM] | IC50 [2, 3] [nM] | IC50 [2, 4] [nM]
CC(C)[C@H](NC(=O)[C@H](C)NC(=O)[C@H](CC(N)=O)NC(=O)[C@H](Cc1ccc2ccccc2c1)NC(=O)CCC(=O)O)C(N)=O [Compound 31, Succinyl-L-3-(2-naphthyl)alanyl-L-asparaginyl-L-alanyl-L-valine-amide] (Suc-[2Nal]NAV-NH2) | 85 | 190 | 190
CC(C)[C@H](NC(=O)[C@H](C)NC(=O)[C@H](CC(N)=O)NC(=O)[C@H](Cc1ccc2ccccc2c1)NC(=O)CCC(=O)O)C(=O)O [Compound 37, Succinyl-L-3-(2-Naphthyl)alanyl-L-asparaginyl-L-alanyl-L-valine] (Suc-[2Nal]NAV-OH) | – | – | 830
CC(C)C(NC(=O)[C@H](C)NC(=O)[C@H](CC(N)=O)NC(=O)[C@H](Cc1ccc2ccccc2c1)NC(=O)CCC(=O)O)C(C)C [Compound 39, Succinyl-L-3-(2-Naphthyl)alanyl-L-asparaginyl-L-alanine-2,4-dimethylpentylamide] | – | – | 1500
C[C@H](NC(=O)[C@H](CC(N)=O)NC(=O)[C@H](Cc1ccc2ccccc2c1)NC(=O)CCC(=O)O)C(=O)NCC(C)(C)C [Compound 40, Succinyl-L-3-(2-Naphthyl)alanyl-L-asparaginyl-L-alanine-neopentylamide] | – | – | 1160
CC(C)[C@H](NC(=O)[C@H](C)NC(=O)[C@H](CC(N)=O)NC(=O)[C@H](Cc1ccc2ccccc2c1)NC(=O)CCC(=O)O)C(=O)N(C)C [Compound 42, Succinyl-L-3-(2-Naphthyl)alanyl-L-asparaginyl-L-alanyl-L-valine-dimethylamide] (Suc-[2Nal]NAV-NMe2) | – | – | 240
DPNAV [DPNAV, reference compound] | 5000 | 7700 | –
